Format in all cases: functional
For test [1], the system named is Staphylococcus aureus. As to the kind of experiment: Minimal bacterial concentration against Staphylococcus aureus was evaluated.
Test [2] relates to Staphylococcus aureus. Nature of the test: Minimal inhibitory concentration against Staphylococcus aureus was evaluated.
Test [3] has as its system Staphylococcus aureus. Nature of the test: Minimal inhibitory concentration against Staphylococcus aureus was evaluated; Range = 1.5-2 ug/mL.
Test [4] has as its system Staphylococcus aureus. As to the kind of experiment: Minimal bacterial concentration against Staphylococcus aureus was evaluated; Range = 2-2.5 ug/mL.
The subject of test [5] is Escherichia coli. As to the kind of experiment: Minimal bacterial concentration against Escherichia coli was evaluated; Range = 2-2.5 ug/mL.
The subject of test [6] is Staphylococcus aureus. As to the kind of experiment: Minimal inhibitory concentration against Staphylococcus aureus was evaluated; Range = 1.5-2.0 ug/mL.
Test [7] concerns Staphylococcus aureus. As to the kind of experiment: Minimal inhibitory concentration against Staphylococcus aureus was evaluated; Range = 1-1.5 ug/mL.
For test [8], the system named is Staphylococcus aureus. As to the kind of experiment: Minimal inhibitory concentration against Staphylococcus aureus was evaluated; Range = 0.5-1.0 ug/mL.
The subject of test [9] is Staphylococcus aureus. Nature of the test: Minimal bacterial concentration against Staphylococcus aureus was evaluated; Range = 1-1.5 ug/mL.
Test [10] deals with Staphylococcus aureus. As to the kind of experiment: Minimal inhibitory concentration against Staphylococcus aureus was evaluated; Range = 0-0.5 ug/mL.
Test [11] concerns Staphylococcus aureus. Nature of the test: Minimal bacterial concentration against Staphylococcus aureus was evaluated; Range = 1.0-1.5ug/mL.
Test [12] relates to Escherichia coli. Nature of the test: Minimal bacterial concentration against Escherichia coli was evaluated; Range = 1.5-2.0 ug/mL.

In brackets after ≈: the same amount, converted by molar mass. Where only a bound is given, the exact number is not on record here.

Consider `Cc1ccc(C2c3ccc([nH]3)C(c3ccc(C)cc3)c3ccc([nH]3)C(c3ccccc3N)c3ccc([nH]3)C(c3ccc(C)cc3)c3ccc2[nH]3)cc1` (configuration not stated), for which the MBC against Staphylococcus aureus [1] is greater than 3 µg/mL. In the test with Staphylococcus aureus [2], this compound yielded an MIC greater than 2.5 µg/mL. For `C=CC1=C(C)/C2=C/c3[nH]c(c(C)c3C=C)/C=c3\[nH]/c(c(CCC(=O)NCCCCN(CCCN)CCCCN)c3C)=C\C3=NC(CC1=N2)C(C)=C3CCC(=O)NCCCCN(CCCN)CCCCN` (configuration not stated), the MIC against Staphylococcus aureus [3] is 2 µg/mL (≈ 2.08 µM). The MBC against Staphylococcus aureus [4] and in the test with Escherichia coli [5] was 2.5 µg/mL (≈ 2.6 µM) in each case.

As for `Nc1ccc(C2c3ccc([nH]3)C(c3ccc(N)cc3)c3ccc([nH]3)C(c3ccccc3O[C@@H]3O[C@@H](CO)[C@@H](O)[C@H](O)[C@@H]3O)c3ccc([nH]3)C(c3ccc(N)cc3)c3ccc2[nH]3)cc1` (some centres not stated), the minimal bactericidal concentration (MBC) against Staphylococcus aureus [1] is greater than 1.5 µg/mL. For the same compound, in the test on Staphylococcus aureus [6], the MIC is 2 µg/mL (≈ 2.37 µM). In the test on Staphylococcus aureus [1], `Nc1ccc(C2c3ccc([nH]3)C(c3ccc(N)cc3)c3ccc([nH]3)C(c3ccc(O[C@@H]4O[C@@H](CO)[C@@H](O)[C@H](O)[C@@H]4O)cc3)c3ccc([nH]3)C(c3ccc(N)cc3)c3ccc2[nH]3)cc1` (some centres not stated) showed an MBC greater than 1.5 µg/mL. For the same compound, it took 1.5 µg/mL (≈ 1.78 µM) to inhibit growth against Staphylococcus aureus [7] (MIC). Turning to `CC(N)C(=O)Nc1ccccc1C1c2ccc([nH]2)C(c2ccc(O[C@@H]3O[C@@H](CO)[C@@H](O)[C@H](O)[C@@H]3O)cc2)c2ccc([nH]2)C(c2ccc(O[C@@H]3O[C@@H](CO)[C@@H](O)[C@H](O)[C@@H]3O)cc2)c2ccc([nH]2)C(c2ccc(O[C@@H]3O[C@@H](CO)[C@@H](O)[C@H](O)[C@@H]3O)cc2)c2ccc1[nH]2` (some centres not stated), the MBC against Staphylococcus aureus [1] is greater than 1.5 µg/mL. Besides, in the test with Staphylococcus aureus [6], the MIC is 2 µg/mL (≈ 1.61 µM).

As to `CC(N)C(=O)Nc1ccc(C2c3ccc([nH]3)C(c3ccc(O[C@@H]4O[C@@H](CO)[C@@H](O)[C@H](O)[C@@H]4O)cc3)c3ccc([nH]3)C(c3ccc(O[C@@H]4O[C@@H](CO)[C@@H](O)[C@H](O)[C@@H]4O)cc3)c3ccc([nH]3)C(c3ccc(O[C@@H]4O[C@@H](CO)[C@@H](O)[C@H](O)[C@@H]4O)cc3)c3ccc2[nH]3)cc1` (some centres not stated), in the test on Staphylococcus aureus [1], the MBC was greater than 1.5 µg/mL. In the test on Staphylococcus aureus [7], the MIC is 1.5 µg/mL (≈ 1.21 µM). Regarding `CC(N)C(=O)Nc1ccc(C2c3ccc([nH]3)C(c3ccc(O[C@@H]4O[C@@H](CO)[C@@H](O)[C@H](O)[C@@H]4O)cc3)c3ccc([nH]3)C(c3ccc(NC(=O)C(C)N)cc3)c3ccc([nH]3)C(c3ccc(O[C@@H]4O[C@@H](CO)[C@@H](O)[C@H](O)[C@@H]4O)cc3)c3ccc2[nH]3)cc1` (some centres not stated), the MIC against Staphylococcus aureus [8] stood at 1 µg/mL (≈ 0.87 µM). In the test on Staphylococcus aureus [9], this compound registered an MBC of 1.5 µg/mL (≈ 1.31 µM). `CC(N)C(=O)Nc1ccc(C2c3ccc([nH]3)C(c3ccc(NC(=O)C(C)N)cc3)c3ccc([nH]3)C(c3ccc(O[C@@H]4O[C@@H](CO)[C@@H](O)[C@H](O)[C@@H]4O)cc3)c3ccc([nH]3)C(c3ccc(O[C@@H]4O[C@@H](CO)[C@@H](O)[C@H](O)[C@@H]4O)cc3)c3ccc2[nH]3)cc1` (some centres not stated) gave a minimum inhibitory concentration (MIC) against Staphylococcus aureus [8] of 1 µg/mL (≈ 0.87 µM). In the test with Staphylococcus aureus [9], the MBC amounted to 1.5 µg/mL (≈ 1.31 µM). `CC(N)C(=O)Nc1ccc(C2c3ccc([nH]3)C(c3ccc(NC(=O)C(C)N)cc3)c3ccc([nH]3)C(c3ccccc3O[C@@H]3O[C@@H](CO)[C@@H](O)[C@H](O)[C@@H]3O)c3ccc([nH]3)C(c3ccc(NC(=O)C(C)N)cc3)c3ccc2[nH]3)cc1` (some centres not stated) yielded an MBC with Staphylococcus aureus [1] greater than 1.5 µg/mL. Further, inhibition of growth against Staphylococcus aureus [3] (MIC) required 2 µg/mL (≈ 1.89 µM). `CC(N)C(=O)Nc1ccc(C2c3ccc([nH]3)C(c3ccc(NC(=O)C(C)N)cc3)c3ccc([nH]3)C(c3ccc(O[C@@H]4O[C@@H](CO)[C@@H](O)[C@H](O)[C@@H]4O)cc3)c3ccc([nH]3)C(c3ccc(NC(=O)C(C)N)cc3)c3ccc2[nH]3)cc1` (some centres not stated): in the test with Staphylococcus aureus [1], the MBC was greater than 1.5 µg/mL. Besides, in the test with Staphylococcus aureus [7], the MIC was found to be 1.5 µg/mL (≈ 1.42 µM).

Take `Nc1ccccc1C1c2ccc([nH]2)C(c2ccc(O[C@@H]3O[C@@H](CO)[C@@H](O)[C@H](O)[C@@H]3O)cc2)c2ccc([nH]2)C(c2ccc(O[C@@H]3O[C@@H](CO)[C@@H](O)[C@H](O)[C@@H]3O)cc2)c2ccc([nH]2)C(c2ccc(O[C@@H]3O[C@@H](CO)[C@@H](O)[C@H](O)[C@@H]3O)cc2)c2ccc1[nH]2` (some centres not stated): the MBC in the test on Staphylococcus aureus [1] is greater than 1.5 µg/mL. In the test on Staphylococcus aureus [8], the MIC amounted to 1 µg/mL (≈ 0.855 µM). In the test with Staphylococcus aureus [9], `Nc1ccc(C2c3ccc([nH]3)C(c3ccc(O[C@@H]4O[C@@H](CO)[C@@H](O)[C@H](O)[C@@H]4O)cc3)c3ccc([nH]3)C(c3ccc(O[C@@H]4O[C@@H](CO)[C@@H](O)[C@H](O)[C@@H]4O)cc3)c3ccc([nH]3)C(c3ccc(O[C@@H]4O[C@@H](CO)[C@@H](O)[C@H](O)[C@@H]4O)cc3)c3ccc2[nH]3)cc1` (some centres not stated) came in with an MBC of 1.5 µg/mL (≈ 1.28 µM). Further, it took 1.5 µg/mL (≈ 1.28 µM) to inhibit growth against Staphylococcus aureus [7] (MIC). `Nc1ccc(C2c3ccc([nH]3)C(c3ccc(O[C@@H]4O[C@@H](CO)[C@@H](O)[C@H](O)[C@@H]4O)cc3)c3ccc([nH]3)C(c3ccc(N)cc3)c3ccc([nH]3)C(c3ccc(O[C@@H]4O[C@@H](CO)[C@@H](O)[C@H](O)[C@@H]4O)cc3)c3ccc2[nH]3)cc1` (some centres not stated): in the test with Staphylococcus aureus [9], the MBC is 1.5 µg/mL (≈ 1.49 µM). The compound further returned an MIC against Staphylococcus aureus [10] of 0.5 µg/mL (≈ 0.496 µM). In the case of `Nc1ccc(C2c3ccc([nH]3)C(c3ccc(N)cc3)c3ccc([nH]3)C(c3ccc(O[C@@H]4O[C@@H](CO)[C@@H](O)[C@H](O)[C@@H]4O)cc3)c3ccc([nH]3)C(c3ccc(O[C@@H]4O[C@@H](CO)[C@@H](O)[C@H](O)[C@@H]4O)cc3)c3ccc2[nH]3)cc1` (some centres not stated), the MIC with Staphylococcus aureus [2] is greater than 3 µg/mL. Regarding `N=C(N)NCCCC(NC(=O)CCCCOc1ccccc1C1c2ccc([nH]2)C(c2ccc(O[C@@H]3O[C@@H](CO)[C@@H](O)[C@H](O)[C@@H]3O)cc2)c2ccc([nH]2)C(c2ccc(O[C@@H]3O[C@@H](CO)[C@@H](O)[C@H](O)[C@@H]3O)cc2)c2ccc([nH]2)C(c2ccc(O[C@@H]3O[C@@H](CO)[C@@H](O)[C@H](O)[C@@H]3O)cc2)c2ccc1[nH]2)C(=O)NCC(=O)NC(CC(=O)O)C(=O)O` (some centres not stated), in the test with Staphylococcus aureus [8], inhibition of growth (MIC) required 1 µg/mL (≈ 0.625 µM). The same compound registered an MBC with Staphylococcus aureus [9] of 1.5 µg/mL (≈ 0.938 µM). Turning to `N=C(N)NCCCC(NC(=O)CCCOc1ccc(C2c3ccc([nH]3)C(c3ccc(O[C@@H]4O[C@@H](CO)[C@@H](O)[C@H](O)[C@@H]4O)cc3)c3ccc([nH]3)C(c3ccc(O[C@@H]4O[C@@H](CO)[C@@H](O)[C@H](O)[C@@H]4O)cc3)c3ccc([nH]3)C(c3ccc(O[C@@H]4O[C@@H](CO)[C@@H](O)[C@H](O)[C@@H]4O)cc3)c3ccc2[nH]3)cc1)C(=O)NCC(=O)NC(CC(=O)O)C(=O)O` (some centres not stated), in the test on Staphylococcus aureus [8], the MIC turned out to be 1 µg/mL (≈ 0.631 µM). Further, in the test on Staphylococcus aureus [9], the minimal bactericidal concentration (MBC) turned out to be 1.5 µg/mL (≈ 0.946 µM).

Turning to `Cc1ccc(C2c3ccc([nH]3)C(c3ccc(C)cc3)c3ccc([nH]3)C(c3ccc(OCCCC(=O)NC(CCCN=C(N)N)C(=O)NCC(=O)NC(CC(=O)O)C(=O)O)cc3)c3ccc([nH]3)C(c3ccc(C)cc3)c3ccc2[nH]3)cc1` (configuration not stated), in the test with Staphylococcus aureus [1], the MBC is greater than 3 µg/mL. For the same compound, the MIC in the test on Staphylococcus aureus [2] was greater than 2.5 µg/mL. Take `Cc1ccc(C2c3ccc([nH]3)C(c3ccc(C)cc3)c3ccc([nH]3)C(c3ccccc3OCCCC(=O)NC(CCCN=C(N)N)C(=O)NCC(=O)NC(CC(=O)O)C(=O)O)c3ccc([nH]3)C(c3ccc(C)cc3)c3ccc2[nH]3)cc1` (configuration not stated): the minimum bactericidal concentration (MBC) against Staphylococcus aureus [1] is greater than 3 µg/mL. This compound showed an MIC in the test with Staphylococcus aureus [2] greater than 2.5 µg/mL. Take `Cc1ccc(C2c3ccc([nH]3)C(c3ccc(C)cc3)c3ccc([nH]3)C(c3ccc(N)cc3)c3ccc([nH]3)C(c3ccc(C)cc3)c3ccc2[nH]3)cc1` (configuration not stated): the MBC in the test with Staphylococcus aureus [1] is greater than 3 µg/mL. The same compound gave an MIC in the test on Staphylococcus aureus [2] greater than 2.5 µg/mL. Compound `Cc1ccc(C2c3ccc([nH]3)C(c3ccc(C)cc3)c3ccc([nH]3)C(c3ccccc3NC(=O)C(N)CO)c3ccc([nH]3)C(c3ccc(C)cc3)c3ccc2[nH]3)cc1` (configuration not stated) had an MIC in the test with Staphylococcus aureus [2] greater than 3 µg/mL.

`Cc1ccc(C2c3ccc([nH]3)C(c3ccc(C)cc3)c3ccc([nH]3)C(c3ccc(OCCCC(=O)N(CCCN)CCCCN)cc3)c3ccc([nH]3)C(c3ccc(C)cc3)c3ccc2[nH]3)cc1` (configuration not stated) registered an MIC with Staphylococcus aureus [8] of 1 µg/mL (≈ 1.12 µM). The same compound displayed an MBC in the test on Staphylococcus aureus [9] of 1.5 µg/mL (≈ 1.68 µM).

In the test with Staphylococcus aureus [8], `C=CC1=C(C)/C2=C/c3[nH]c(c(C)c3C=C)/C=c3\[nH]/c(c(CCC(=O)NCCCCN(CCCN)CCCCNCCCN)c3C)=C\C3=NC(CC1=N2)C(C)=C3CCC(=O)NCCCCN(CCCN)CCCCNCCCN` (configuration not stated) registered an MIC of 1 µg/mL (≈ 0.93 µM). The results for the MBC in the test with Staphylococcus aureus [11] and against Escherichia coli [12] were 1.5 µg/mL (≈ 1.39 µM) and 2 µg/mL (≈ 1.86 µM), respectively. `Cc1ccc(C2c3ccc([nH]3)C(c3ccc(C)cc3)c3ccc([nH]3)C(c3ccc(OCCCC(=O)N(CCCN)CCCCNCCCN)cc3)c3ccc([nH]3)C(c3ccc(C)cc3)c3ccc2[nH]3)cc1` (configuration not stated) registered an MBC against Staphylococcus aureus [1] greater than 1.5 µg/mL. Besides, inhibition of growth against Staphylococcus aureus [7] (MIC) required 1.5 µg/mL (≈ 1.58 µM). `Cc1ccc(C2c3ccc([nH]3)C(c3ccc(C)cc3)c3ccc([nH]3)C(c3ccc(NC(=O)C(N)CO)cc3)c3ccc([nH]3)C(c3ccc(C)cc3)c3ccc2[nH]3)cc1` (configuration not stated) came in with an MIC with Staphylococcus aureus [2] greater than 3 µg/mL.

By MBC is commonly meant the smallest concentration meeting the test's criterion for killing. For orientation: MIC means the least concentration at which growth counts as inhibited. A higher MIC goes with weaker potency.

For the origin of these results see ChEMBL document CHEMBL1138821, “Amino porphyrins as photoinhibitors of Gram-positive and -negative bacteria” (2004).
